{
  "source": "patent US20240392302A1",
  "about": "“METHOD FOR DETECTING AND QUANTIFYING RNA” (FLUORESCENCE DIAGNOSIS (SHANGHAI) BIOTECH COMPANY LTD., priority 2021, published 2024)",
  "molecules": {"B1": {"name": "ACTB-N16-1: ACTB-N16-1 chimeric RNA, SEQ ID NO: 13 (nucleic acid)", "chain": "ANGGANGANGANANCGCCGCGCNCGNCGNCGACAACGGCNCCGGCANGNGCAAGGCCGGCNNCGCGGGCGACGANGCCCCCCGGGCCGNCNNCCCCNCCANCGNGGGGCGCCCCAGGCACCAGGGCGNGANGGNGGGCANGGGNCAGAAGGANNCCNANGNGGGCGACGAGGCCCAGAGCAAGAGAGGCANCCNCACCCNGAAGNACCCCANCGAGCACGGCANCGNCACCAACNGGGACGACANGGAGAAAANCNGGCACCACACCNNCNACAANGAGCNGCGNGNGGCNCCCGAGGAGCACCCCGNGCNGCNGACCGAGGCCCCCCNGAACCCCAAGGCCAACCGCGAGAAGANGACCCAGANCANGNNNGAGACCNNCAACACCCCAGCCANGNACGNNGCNANCCAGGCNGNGCNANCCCNGNACGCCNCNGGCCGNACCACNGGCANCGNGANGGACNCCGGNGACGGGGNCACCCACACNGNGCCCANCNACGAGGGGNANGCCCNCCCCCANGCCANCCNGCGNCNGGACCNGGCNGGCCGGGACCNGACNGACNACCNCANGAAGANCCNCACCGAGCGCGGCNACAGCNNCACCACCACGGCCGAGCGGGAAANCGNGCGNGACANNAAGGAGAAGCNGNGCNACGNCGCCCNGGACNNCGAGCAAGAGANGGCCACGGCNGCNNCCAGCNCCNCCCNGGAGAAGAGCNACGAGCNGCCNGACGGCCAGGNCANCACCANNGGCAANGAGCGGNNCCGCNGCCCNGAGGCACNCNNCCAGCCNNCCNNCCNGGGCANGGAGNCCNGNGGCANCCACGAAACNACCNNCAACNCCANCANGAAGNGNGACGNGGACANCCGCAAAGACCNGNACGCCAACACAGNGCNGNCNGGCGGCACCACCANGNACCCNGGCANNGCCGACAGGANGCAGAAGGAGANCACNGCCCNGGCACCCAGCACAANGAAGANCAAGANCANNGCNCCNCCNGAGCGCAAGNACNCCGNGNGGANCGGCGGCNCCANCCNGGCCNCGCNGNCCACCNNCCAGCAGANGNGGANCAGCAAGCAGGAGNANGACGAGNCCGGCCCCNCCANCGNCCACCGCAAANGCNNCNAGCNCGAGGCCGCGGGCNCCAGGNGCNGCNNCGGCAGGNAACGGACNNAGANCCACNGNACGCCCGCGGC"}},
  "key": {"[1]": {"test": "Function detection of the nucleic acid aptamer: fluorescence activation of I-5-14 by N16-1, its mutants and base-modified forms", "assay_type": "biochemical", "settings": "0.5 μM I-5-14 without nucleic acid aptamer, same detection conditions", "description": "A primer containing T7 promoter was used for amplification of corresponding cDNA of RNA to be detected, and T7 RNA polymerase (purchased from Fermentas) was used for obtaining RNA by means of transcription with recovered double-stranded cDNA as a template. 10 μL of 3 M NaAc and 115 μL of DEPC water were added into 20 μL of transcription system, and were mixed well before 150 μL of phenol chloroform-[…] mixture (phenol:chloroform:[…]=25:24:1) was added; then the mixture was mixed well by means of oscillation, and the supernatant was taken after centrifugation at 10,000 rpm for 5 min. An equal volume of chloroform solution was added and was mix well by means of oscillation, and then the supernatant was taken after centrifugation at 10,000 rpm for 5 min; the process was repeated once. 2.5 times the volume of anhydrous ethanol was added into the supernatant, and the mixture was placed in a refrigerator at −20° C. for 30 min and was subject to centrifugation at 12,000 rpm at 4° C. for 5 min; then the supernatant was removed, and the precipitation was cleaned twice with 75% pre-cooled anhydrous ethanol. After volatilization of the ethanol, the precipitation was re-suspended with an appropriate amount of screening buffer, and then was treated at 75° C. for 5 min and was placed at room temperature for more than 10 min for subsequent experiments.\n(§1) Nucleic acid aptamer molecules of N16 or N16 mutants were prepared by using the commonly-used experimental method (I), 2.5 μM of nucleic acid aptamer molecules and 0.5 μM of fluorophore molecules were incubated in a detection buffer (40 mM of HEPES, pH 7.4, 125 mM of KCl, 5 mM of MgCl2, 5% DMSO), and the maximum excitation peak and the maximum emission peak of the fluorescence of the nucleic acid aptamer-fluorophore molecular complex were detected with Synergy Neo2 multifunctional enzyme-labeler. Synergy Neo2 multifunctional enzyme-labeler was used again to detect fluorescence intensity of the nucleic acid aptamer-fluorophore molecular complex under its maximum excitation and emission conditions, the control sample ([…] of fluorophore molecules without nucleic acid aptamer) was also measured under the same conditions, and the ratio of fluorescence intensity was calculated. For example, as for fluorescence of the complex formed by 2.5 μM of N16-1 nucleic acid aptamer and 0.5 μM of I-5-14 fluorophore molecules, the maximum excitation peak is 512 nm and the maximum emission peak is 574 nm. It was detected by the Synergy Neo2 multifunctional enzyme-labeler that the fluorescence intensity of the complex at an excitation condition of 512±10 nm and an emission condition of 574 nm±10 nm was 49,088, while the fluorescence intensity of the control (0.5 μM of I-5-14 fluorophore molecules) under the same detection conditions was 399, so the activation multiple of N16-1 nucleic acid aptamer to I-5-14 fluorophore molecules was 123.\nAccording to the results, most N16-1 mutants with a single base mutation retained a relatively strong fluorescence activation effect (no smaller than 2 times) on I-5-14 (Table 2). Some N16-1 mutants with 2 to 5 base mutations still retained a relatively strong fluorescence activation effect (greater than 20 times) for I-5-14 (Table 3). In a word, many single-base and multi-base mutants of N16-1 might still retain the aptamer function of activating the 1-5-14 fluorophore molecules."}, "[2]": {"system": "F30-N16-1 RNA aptamer molecules", "test": "Binding of F30-N16-1 RNA aptamer molecules with different fluorescent molecules (fluorescence spectrum, activation multiple)", "assay_type": "biochemical", "description": "as §1\nF30-N16-1 RNA aptamer molecules were prepared by using the commonly-used experimental method (I), and were used for detecting basic properties, including fluorescence spectrum and fluorescence activation multiple, of the binding of I-5-14 analogues with N16."}, "[3]": {"test": "Spectral properties (excitation, emission, light absorption) of N16-1-I-5-14 complex", "assay_type": "physicochemical", "settings": "2 μM I-5-14 with 10 μM N16-1, or 5 μM pure I-5-14", "description": "In order to detect the spectral properties of N16-1-I-5-14 complex, N16-1 (SEQ ID NO: 1) RNA was prepared by using the commonly-used experimental method (I). 1 μM of I-5-14 was incubated with 5 μM of N16-1. According to the results, the maximum excitation light of N16-1-I-5-14 complex was 512 nm, and the maximum emission light thereof was 574 nm (FIG. 3B).\nIn order to detect the difference between the light absorption of N16-1-I-5-14 complex and that of I-5-14 fluorophore molecules per se, 2 μM of I-5-14 incubated with 10 μM of N16-1, or 5 μM of pure I-5-14 was used for detecting the light absorption of I-5-14 and that of N16-1-I-5-14 complex respectively."}, "[4]": {"system": "BL21 (DE3, Star) Escherichia coli strain expressing F30-N16-1", "test": "Labeling of RNA in bacteria by F30-N16-1-I-5-14 complex", "assay_type": "cell-based", "settings": "F30-N16-1 induced with 1 mM IPTG 4 h; PBS with 2 μM I-5-14", "description": "In order to detect the effect of F30-N16-1-I-5-14 in bacteria, a bacterial expression plasmid expressing F30-N16-1 (SEQ ID NO: 2) was constructed first. F30-N16-1 in Example 2 was amplified with primers, pET28a was amplified with primers so as to remove the promoter and polyclonal site region, and then the F30-N16-1 DNA fragment obtained by means of amplification was connected to pET28a linearized vector by using the experimental method (III), and the obtained recombinant plasmid was named as pET28a-T7-F30-N16-1.\nBL21 (DE3, Star) Escherichia coli strain was transformed with recombinant plasmid pET28a-T7-F30-N16-1, and monoclone was picked and cultured at 37° C.; when OD600 is about 0.2, 1 mM of IPTG was added to induce the expression of F30-N16-1, and bacteria were collected 4 h later; resuspension was performed with a PBS solution containing 2 μM of I-5-14. BL21 (DE3, Star) Escherichia coli with transformed pET28a empty vector served as control."}, "[5]": {"system": "293T/17 cells expressing F30-N16-1", "test": "Labeling of RNA in mammalian cells by F30-N16-1 and I-5-14", "assay_type": "cell-based", "settings": "1 μm of I-5-14 added 36 h after transfection", "description": "Main imaging experiments in the examples were carried out by using a confocal laser microscope Leica SP8 equipped with white laser, and an HCXPL APO 63×1.47 oil mirror and a HyD detector were used.\nIn order to detect labeling of RNA in mammalian cells by using F30-N16-1 and I-5-14, a mammalian cell expression plasmid expressing F30-N16-1 (SEQ ID NO: 2) was constructed. F30-N16-1 in Example 9 was amplified with primers P1, P2, and P3, respectively.\nThese fragments were inserted into pLKO.1 puro vector by using the experimental method (III), an expression vector obtained thereby was named as pLKO.1-F30-N16-1, and the plasmid expressed F30-N16-1.\n293T/17 cells were transfected with pLKO.1-F30-N16-1 plasmid, […] of I-5-14 was added 36 h later so as to label F30-N16-1, cells not expressing the corresponding aptamer served as control, and the labeling effect was detected by using experimental method (V)."}, "[6]": {"system": "RNA aptamers", "settings": "cited from earlier work"}, "[7]": {"test": "N16-1 as a label for RNA extraction and purification", "settings": "total RNA of COS-7 cells; eluent vs crushed supernatant, incubated with I-5-14", "description": "In order to detect the application of N16-1 to RNA extraction and purification, the pCDNA3.1/hygro(+)-ACTB-N16-1 recombinant plasmids in Example 13 were transfected into COS-7 cells, cells were collected 24 h later, and total RNA of cells was extracted by using Eastep Super total RNA extraction kit (Promega). The extracted total RNA dissolved in a buffer solution having a pH value of 7.4 and containing 40 mM of HEPES, 125 mM of KCl and 5 mM of MgCl2, and was incubated at 70° C. for 10 min, and then was placed at room temperature for more than 30 min.\n500 μL of Activated Thiol Sepharose 4B (GE Healthcare) was taken and was washed twice with 500 μL of PBS, and PBS containing 10 mM of TCEP (Sigma) was added for incubation at room temperature for 1 h. 500 μL of PBS was used for cleaning twice, I-5-14 fluorophore molecules (Mal-I-5-14) containing maleic amide were added for reaction at room temperature for 30 min, and then 500 μL of PBS was used for cleaning for three times. […]\nWith crushed supernatant of blank cells as control, the fluorescence of the crushed supernatant of cells incubated with fluorophore I-5-14, and that of the eluent after final high temperature elution incubated with fluorophore I-5-14 were respectively detected."}},
  "data": [
    {"molecule": "CN(CCO)c1ccc(/C=C2\\SC(=S)NC2=O)cc1", "note": "[I-5-14]", "values": [
      {"measurement": "fluorescence intensity of the control", "setting": "[1]", "result": 399},
      {"measurement": "Maximum emission peak (nm)", "setting": "[2]; complex with F30-N16-1", "result": 574, "unit": "nm"},
      {"measurement": "Maximum excitation peak (nm)", "setting": "[2]; complex with F30-N16-1", "result": 513, "unit": "nm"},
      {"measurement": "Activation Multiple", "setting": "[2]; fluorophore with F30-N16-1", "result": 123},
      {"measurement": "maximum light absorption", "setting": "[3]", "result": 477, "unit": "nm"},
      {"measurement": "fluorescence of bacteria", "setting": "[4]", "result": "bright yellow fluorescence"},
      {"measurement": "labeling effect (fluorescence imaging)", "setting": "[5]", "result": "very bright yellow fluorescence"}
    ]},
    {"molecule": "CN(C)c1ccc(C(=C2C=CC(=[N+](C)C)C=C2)c2ccccc2)cc1", "note": "[MG, malachite green]", "values": [
      {"measurement": "fluorescence enhancement multiple", "setting": "[6]", "result": 2360}
    ]},
    {"molecule": "B1", "values": [
      {"measurement": "enrichment of RNA on Mal-I-5-14 microbeads", "setting": "[7]", "result": "well enriched"}
    ]}
  ]
}
